Earlier results in patent US5547866A (priority 1994, dated 1996).

Test system: breast, lung and other cancers
Settings: background

CC(=O)O[C@H]1C(=O)[C@@]2(C)[C@H]([C@H](OC(=O)c3ccccc3)[C@]3(O)C[C@H](OC(=O)[C@H](O)[C@@H](NC(=O)c4ccccc4)c4ccccc4)C(C)=C1C3(C)C)[C@]1(OC(C)=O)CO[C@@H]1C[C@@H]2O [taxol]
activity against breast, lung and other cancers: shown activity against breast, lung and other cancers
